# Reference: article PMC8509773, “3-Pyridinylidene Derivatives of Chemically Modified Lupane and Ursane Triterpenes as Promising Anticancer Agents by Targeting Apoptosis” (International Journal of Molecular Sciences, 2021)
# Marks after values point to notes of the source that are not given here.
# Legend:
# SNB-75 = assay: NCI-60 SRB screening (one-dose and five-dose); type: cell-based, human; details: 48 h; for GI50: Homo sapiens, SNB-75, five dose 0.01–100 μM; for Growth Percent: SNB-75, 10 μM
# Outline: (§1)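 Growth inhibition is scored with sulforhodamine B after 48 h of continuous compound exposure. An MG_MID averages each parameter over the whole cell panel, insensitive lines being counted at the top tested concentration.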
# EKVX = assay: NCI-60 SRB screening (one-dose and five-dose); type: cell-based, human; details: 48 h; for Growth Percent: 10 μM; for GI50: Homo sapiens, five dose 0.01–100 μM
# Outline: as §1
# RPMI-8226 = assay: NCI-60 SRB screening (one-dose and five-dose); type: cell-based, human; details: 48 h; for GI50: Homo sapiens, RPMI-8226, five dose 0.01–100 μM; for Growth Percent: RPMI-8226, 10 μM
# Outline: as §1
# SK-OV-3 = assay: NCI-60 SRB screening (one-dose and five-dose); type: cell-based, human; details: 48 h; for GI50: Homo sapiens, SK-OV-3, five dose 0.01–100 μM; for Growth Percent: SK-OV-3, 10 μM
# Outline: as §1
# NCI-H23 = assay: NCI-60 SRB screening (one-dose and five-dose); type: cell-based, human; details: 48 h; for GI50: Homo sapiens, NCI-H23, five dose 0.01–100 μM; for Growth Percent: NCI-H23, 10 μM
# Outline: as §1
# SK-MEL-2 = assay: NCI-60 SRB screening (one-dose and five-dose); type: cell-based, human; details: 48 h; for GI50: Homo sapiens, SK-MEL-2, five dose 0.01–100 μM; for Growth Percent: SK-MEL-2, 10 μM
# Outline: as §1
# LOX IMVI = assay: NCI-60 SRB screening (one-dose and five-dose); type: cell-based, human; details: 48 h; for GI50: Homo sapiens, five dose 0.01–100 μM
# Outline: (§2)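 Spectrophotometric SRB end point; 48-h drug exposure; percent of untreated-control growth reported.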
# UACC-62 = assay: NCI-60 SRB screening (one-dose and five-dose); type: cell-based, human; details: 48 h; for GI50: Homo sapiens, UACC-62, five dose 0.01–100 μM; for Growth Percent: UACC-62, 10 μM
# Outline: as §1
# HOP-92 = assay: NCI-60 SRB screening (one-dose and five-dose); type: cell-based, human; details: 48 h; for Growth Percent: HOP-92, 10 μM; for GI50: Homo sapiens, HOP-92, five dose 0.01–100 μM
# Outline: as §1
# OVCAR-3 = assay: NCI-60 SRB screening (one-dose and five-dose); type: cell-based, human; details: 48 h; for GI50: Homo sapiens, OVCAR-3, five dose 0.01–100 μM; for Growth Percent: OVCAR-3, 10 μM
# Outline: as §1
# OVCAR-8 = assay: NCI-60 SRB screening (one-dose and five-dose); type: cell-based, human; details: 48 h; for GI50: Homo sapiens, OVCAR-8, five dose 0.01–100 μM; for Growth Percent: OVCAR-8, 10 μM
# Outline: as §1
# UO-31 = assay: NCI-60 SRB screening (one-dose and five-dose); type: cell-based, human; details: 48 h; for GI50: Homo sapiens, UO-31, five dose 0.01–100 μM; for Growth Percent: UO-31, 10 μM
# Outline: as §1
# COLO 205 = assay: NCI-60 SRB screening (one-dose and five-dose); type: cell-based, human; details: 48 h; for Growth Percent: COLO 205, 10 μM; for GI50: Homo sapiens, COLO 205, five dose 0.01–100 μM
# Outline: as §1
# U251 = assay: NCI-60 SRB screening (one-dose and five-dose); type: cell-based, human; details: 48 h; for GI50: Homo sapiens, U-251, U251, five dose 0.01–100 μM; for Growth Percent: U251, 10 μM
# Outline: as §2
# A498 = assay: NCI-60 SRB screening (one-dose and five-dose); type: cell-based, human; details: 48 h; for Growth Percent: A498, 10 μM; for GI50: Homo sapiens, A498, five dose 0.01–100 μM
# Outline: as §2
# RXF 393 = assay: NCI-60 SRB screening (one-dose and five-dose); type: cell-based, human; details: 48 h; for GI50: Homo sapiens, RXF 393, five dose 0.01–100 μM; for Growth Percent: RXF 393, 10 μM
# Outline: as §2
# IGROV1 = assay: NCI-60 SRB screening (one-dose and five-dose); type: cell-based, human; details: 48 h; for GI50: Homo sapiens, IGROV-1, IGROV1, five dose 0.01–100 μM; for Growth Percent: IGROV1, 10 μM
# Outline: as §1
# SR = assay: NCI-60 SRB screening (one-dose and five-dose); type: cell-based, human; details: 48 h; for GI50: Homo sapiens, five dose 0.01–100 μM
# Outline: as §2
# MOLT-4 = assay: NCI-60 SRB screening (one-dose and five-dose); type: cell-based, human; details: 48 h; for GI50: Homo sapiens, MOLT-4, five dose 0.01–100 μM; for Growth Percent: MOLT-4, 10 μM
# Outline: as §2
# M14 = assay: NCI-60 SRB screening (one-dose and five-dose); type: cell-based, human; details: 48 h; for GI50: Homo sapiens, M14, five dose 0.01–100 μM; for Growth Percent: M14, 10 μM
# Outline: as §2
# Bcl-2 gene = assay: rtPCR gene expression in Sk-Mel-28 cells; type: cell-based, human
# [1] = system: NCI-60 cancer cell line panel; assay: NCI-60 cancer cell line panel screening (whole panel / subpanels); type: cell-based; details: for Selectivity index (SI): full panel MG_MID / subpanel MG_MID; for GI50: Homo sapiens, five-dose testing, all cell lines, read-out: GI50 values, range over the NCI-60 panel
# Description: At first, compounds were tested in a single high dose concentration regimen (10 µM) against a panel of sixty various cancer cell lines; the results of the screening are outlined in Table 1 in the form of percent growth (GP %) of treated cells versus untreated cells used as control, where negative numbers indicate cell kill. The experimental results of growth inhibition may range from 0 to 100 and indicate a cytostatic effect while negative values indicate cell death and thus a cytotoxic activity (for NCI data see Supplementary Material Figures S6–S12).
# The selectivity index (SI) was calculated by dividing the full panel MG_MID60 (μM) of tested compounds by their individual subpanel MG_MID of the cell line (μM); it correlates directly to the selectivity of their anticancer activity (Table 3). […] By contrast, despite its strong antiproliferative effect, compound 7 acts with low selectivity against the various human tumor cell lines, the highest SI value being 1.73.
# Compounds 1, 2, and 4–8 were tested at one dose assay (10^−5 M) toward a panel of approximately sixty cancer cell lines representing different cancer types: leukemia, melanoma, lung, colon, CNS, ovarian, renal, prostate, and breast cancers. Primary anticancer assays were performed according to the NCI protocol as described elsewhere (see, e.g., http://dtp.nci.nih.gov accessed on 16 October 2019). The compounds were added at a single concentration and the cell cultures were incubated for 48 h. The end point determinations were made with a protein binding dye, sulforhodamine B (SRB). The results for each compound are reported as the percent growth (GP %) of treated cells compared to untreated control cells (negative numbers indicate cell kill). Compounds with considerable activity against all tested human tumor cell lines (6 and 7) were selected for the advanced assay against a panel of approximately sixty tumor cell lines at 10-fold dilutions of five concentrations (100 µM, 10 µM, 1 µM, 0.1 µM, and 0.01 µM). The percentage of growth was evaluated spectrophotometrically versus controls not treated with test agents after 48-h exposure and using SRB protein assay to estimate cell viability or growth. Three antitumor activity dose–response parameters were calculated for each cell line: GI50—molar concentration of the compound that inhibits 50% net cell growth; TGI—molar concentration of the compound leading to the total inhibition; and LC50—molar concentration of the compound leading to 50% net cell death (presented in negative logarithm). Furthermore, mean graph midpoints (MG_MID) were calculated for each of the parameters, giving an average activity parameter over all cell lines for the tested compound. For the MG_MID calculation, insensitive cell lines were included with the highest concentration tested.
# Bcl-XL gene = assay: rtPCR gene expression in RPMI cells; type: cell-based, human
# Description: (§3) We applied rtPCR techniques in order to investigate the effect of our two compounds on the anti-apoptotic Bcl-XL and Bcl-2 genes as well as the proapoptotic Bak and Bad genes (Table 4). […] Therefore, we may presume that the apoptotic mechanism of both compounds against the A375 cells is not mediated by the tested genes or that alterations in their ratio are the underlying mechanism.
# Bak gene = assay: rtPCR gene expression in RPMI cells; type: cell-based, human
# Description: as §3
# [2] = Non-Small Cell Lung Cancer subpanel
structure (smiles),measurement,setting,value
"C[C@H]1[C@@H]2[C@H]3CC[C@@H]4[C@@]5(C)C/C(=C\c6cccnc6)C(=O)C(C)(C)[C@@H]5CC[C@@]4(C)[C@]3(C)CC[C@]23CO[C@@]1(C)[C@@H](C(=O)/C=C/c1cccnc1)C3 [Compound 6, 3-Oxo-2-(3-pyridinylidene)-21-[3-(2E-pyridinyl)-prop-2-en-1-one]-20β,28-epoxy-18α,19βH-ursane]",GI50,SNB-75,1020 nM
same,Growth Percent,SNB-75,32.69%
same,Growth Percent,EKVX,−1.58%
same,GI50,EKVX,1720 nM
same,GI50,RPMI-8226,160 nM
same,Growth Percent,RPMI-8226,5.06%
same,GI50,SK-OV-3,5900 nM
same,Growth Percent,SK-OV-3,58.93%
same,GI50,NCI-H23,1040 nM
same,Growth Percent,NCI-H23,−48.71%
same,GI50,SK-MEL-2,1300 nM
same,Growth Percent,SK-MEL-2,−25.53%
same,Growth Percent,LOX IMVI; 10 μM,−85.19%
same,GI50,LOX IMVI,890 nM
same,GI50,UACC-62,600 nM
same,Growth Percent,UACC-62,−25.57%
same,Growth Percent,HOP-92,−19.97%
same,GI50,HOP-92,820 nM
same,GI50,OVCAR-3,880 nM
same,Growth Percent,OVCAR-3,−43.66%
same,GI50,OVCAR-8,1600 nM
same,Growth Percent,OVCAR-8,−13.55%
same,GI50,UO-31,640 nM
same,Growth Percent,UO-31,−97.34%
same,Growth Percent,COLO 205,−56.84%
same,GI50,COLO 205,1430 nM
same,GI50,U251,1040 nM
same,Growth Percent,U251,−68.02%
same,Growth Percent,A498,−59.07%
same,GI50,A498,780 nM
same,GI50,RXF 393,830 nM
same,Growth Percent,RXF 393,−91.75%
same,GI50,IGROV1,960 nM
same,Growth Percent,IGROV1,1.25%
same,GI50,SR,160 nM
same,GI50,MOLT-4,170 nM
same,Growth Percent,MOLT-4,16.72%
same,GI50,M14,1740 nM
same,Growth Percent,M14,−20.11%
same,"Bcl-2 gene expression, Mean",Bcl-2 gene,0.200 *
same,Selectivity index (SI),[1]; Breast Cancer subpanel,0.96
same,Selectivity index (SI),[1]; CNS Cancer subpanel,0.96
same,Selectivity index (SI),[1]; Colon Cancer subpanel,1.10
same,GI50,[1],30 to 5900 nM
same,Selectivity index (SI),[1]; Leukemia subpanel,5.30
same,Selectivity index (SI),[1]; Melanoma subpanel,1.01
same,Selectivity index (SI),[1]; [2],0.87
same,Selectivity index (SI),[1]; Ovarian Cancer subpanel,0.57
same,Selectivity index (SI),[1]; Prostate Cancer subpanel,1.86
same,Selectivity index (SI),[1]; Renal Cancer subpanel,1.01
same,"Bcl-XL gene expression, Mean",Bcl-XL gene,0.100 **
same,"Bak gene expression, Mean",Bak gene,0.066 ***
"COC(=O)[C@]12CC[C@@H](C(=O)/C=C/c3cccnc3)[C@@H]1[C@H]1CC[C@@H]3[C@@]4(C)C/C(=C\c5cccnc5)C(=O)C(C)(C)[C@@H]4CC[C@@]3(C)[C@]1(C)CC2 [Compound 7, methyl 2,30-bis-(3-pyridinylidene)-3,20-dioxo-lup-28-oate]",GI50,SNB-75,1350 nM
same,Growth Percent,SNB-75,−98.68%
same,Growth Percent,EKVX,−76.32%
same,GI50,EKVX,410 nM
same,GI50,RPMI-8226,240 nM
same,Growth Percent,RPMI-8226,−28.73%
same,GI50,SK-OV-3,1430 nM
same,Growth Percent,SK-OV-3,−23.10%
same,GI50,NCI-H23,350 nM
same,Growth Percent,NCI-H23,−48.31%
same,GI50,SK-MEL-2,470 nM
same,Growth Percent,SK-MEL-2,-61.15%
same,GI50,LOX IMVI,210 nM
same,GI50,UACC-62,400 nM
same,Growth Percent,UACC-62,−67.85%
same,Growth Percent,HOP-92,−79.86%
same,GI50,HOP-92,530 nM
same,GI50,OVCAR-3,270 nM
same,Growth Percent,OVCAR-3,−93.24%
same,GI50,OVCAR-8,340 nM
same,Growth Percent,OVCAR-8,−34.25%
same,GI50,UO-31,170 nM
same,Growth Percent,UO-31,−100.00%
same,Growth Percent,COLO 205,−45.07%
same,GI50,COLO 205,360 nM
same,GI50,U251,360 nM
same,Growth Percent,U251,−87.90%
same,Growth Percent,A498,−91.17%
same,GI50,A498,180 nM
same,GI50,RXF 393,270 nM
same,Growth Percent,RXF 393,−93.62%
same,GI50,IGROV1,270 nM
same,Growth Percent,IGROV1,−87.88%
same,Growth Percent,SR; 10 μM,−14.07%
same,GI50,SR,270 nM
same,GI50,MOLT-4,300 nM
same,Growth Percent,MOLT-4,−31.34%
same,GI50,M14,310 nM
same,Growth Percent,M14,−80.31%
same,"Bcl-2 gene expression, Mean",Bcl-2 gene,0.210 *
same,Selectivity index (SI),[1]; Breast Cancer subpanel,1.34
same,Selectivity index (SI),[1]; CNS Cancer subpanel,0.72
same,Selectivity index (SI),[1]; Colon Cancer subpanel,1.07
same,GI50,[1],180 to 1530 nM
same,Selectivity index (SI),[1]; Leukemia subpanel,1.73
same,Selectivity index (SI),[1]; Melanoma subpanel,1.59
same,Selectivity index (SI),[1]; [2],0.65
same,Selectivity index (SI),[1]; Ovarian Cancer subpanel,0.98
same,Selectivity index (SI),[1]; Prostate Cancer subpanel,0.50
same,Selectivity index (SI),[1]; Renal Cancer subpanel,1.23
same,"Bcl-XL gene expression, Mean",Bcl-XL gene,1.360 *
same,"Bak gene expression, Mean",Bak gene,0.990 **
